These are literature values, as cited in US20100233259A1, “DOSAGE FORM OF ROPINIROLE” (priority 2008, published 2010).

SMILES strings stand for the structures.

For the data set the following is noted: in vivo.

Regarding `CCCN(CCC)CCc1cccc2c1CC(=O)N2` [Ropinirole], the half life is 5 to 6 h.
